Assay results published in patent publication US10448639B2, “Fungicidal pyrazoles” (FMC CORPORATION, priority 2009, dated 2019).

How the values were obtained:
Septoria tritici = experiment: Test G: wheat leaf blotch, preventive spray on wheat seedlings, visual disease rating; conditions: wheat leaf blotch, 100 = 100% disease control; for Test G disease control rating: sprayed the day before inoculation, 0 = no disease control relative to controls
Botrytis cinerea = experiment: Test B: tomato Botrytis, preventive spray on tomato seedlings, visual disease rating; conditions: tomato Botrytis, 100 = 100% disease control; for Test B disease control rating: 0 = no disease control relative to controls
Alternaria solani = experiment: Test C: tomato early blight, preventive spray on tomato seedlings, visual disease rating; conditions: tomato early blight, 100 = 100% disease control; for Test C disease control rating: 0 = no disease control relative to controls
From the text: General protocol for preparing test suspensions for Tests A-J: the test compounds were first dissolved in acetone in an amount equal to 3% of the final volume and then suspended at the desired concentration (in ppm) in acetone and purified water (50/50 mix by volume) containing 250 ppm of the surfactant Trem® 014 (polyhydric alcohol esters). The resulting test suspensions were then used in Tests A-J. Spraying a 200 ppm test suspension to the point of run-off on the test plants was the equivalent of a rate of 500 g/ha. Unless otherwise indicated, the rating values indicate a 200 ppm test suspension was used. (An asterisk “*” next to the rating value indicates a 40 ppm test suspension was used.)
The test suspension was sprayed to the point of run-off on tomato seedlings. The following day the seedlings were inoculated with a spore suspension of Alternaria solani (the causal agent of tomato early blight) and incubated in a saturated atmosphere at 27° C. for 48 h, and then moved to a growth chamber at 20° C. for 5 days, after which time visual disease ratings were made.

[1] = tested on: Puccinia recondita f. sp. tritici; experiment: Test I: wheat leaf rust, preventive spray on wheat seedlings, visual disease rating; conditions: wheat leaf rust, 100 = 100% disease control; for Test I disease control rating: sprayed the day before inoculation, 0 = no disease control relative to controls
[2] = tested on: Erysiphe graminis f sp. tritici; experiment: Test J: wheat powdery mildew, preventive spray on wheat seedlings, visual disease rating; conditions: wheat powdery mildew, 100 = 100% disease control; for Test J disease control rating: sprayed the day before inoculation, 0 = no disease control relative to controls
Septoria nodorum = experiment: Test F: Septoria glume blotch, preventive spray on wheat seedlings, visual disease rating; conditions: 100 = 100% disease control; for Test F disease control rating: 0 = no disease control relative to controls
[3] = tested on: Puccinia recondita f. sp. tritici; experiment: Test H: wheat leaf rust, curative spray on inoculated wheat seedlings, visual disease rating; conditions: wheat leaf rust, 100 = 100% disease control; for Test H disease control rating: sprayed after inoculation, 0 = no disease control relative to controls
[4] = preventive spray, 0 = no control
[5] = Septoria glume blotch on wheat, preventive spray, 0 = no control
[6] = 0 = no control relative to controls
[7] = preventive, 0 = no control relative to controls
[8] = Septoria glume blotch, 0 = no control relative to controls
[9] = curative, 0 = no control relative to controls

Cc1nn(C)c(Nc2c(F)cc(C#N)cc2F)c1-c1c(F)cc(F)cc1F [compound 92]
Test G rating (% disease control) (Septoria tritici; [4]): 100%
Test B rating (% disease control) (Botrytis cinerea; [4]): 100%
Test C rating (% disease control) (Alternaria solani; [4]): 100%
Test I rating (% disease control) [1, 4]: 99%
Test J rating (% disease control) [2, 4]: 100%
Test F rating (% disease control) (Septoria nodorum; [5]): 99%
Test H rating (% disease control) ([3]; curative spray, 0 = no control): 41%

COc1cc(F)c(Nc2c(-c3ccc(Cl)cc3)c(C)nn2C)c(F)c1 [compound 29]
Test G rating (% disease control) (Septoria tritici; [4]): 98%
Test B rating (% disease control) (Botrytis cinerea; [4]): 94%
Test C rating (% disease control) (Alternaria solani; [4]): 0%
Test I rating (% disease control) [1, 4]: 46%
Test J rating (% disease control) [2, 4]: 0%
Test F rating (% disease control) (Septoria nodorum; [5]): 0%
Test H rating (% disease control) ([3]; curative spray, 0 = no control): 0%

COc1cc(F)c(Nc2c(-c3ccc(Cl)cc3Cl)c(C)nn2C)c(F)c1 [compound 62]
Test G rating (% disease control) (Septoria tritici; [4]): 98%
Test B rating (% disease control) (Botrytis cinerea; [4]): 99%
Test C rating (% disease control) (Alternaria solani; [4]): 98%
Test I rating (% disease control) [1, 4]: 99%
Test J rating (% disease control) [2, 4]: 99%
Test F rating (% disease control) (Septoria nodorum; [5]): 84%
Test H rating (% disease control) ([3]; curative spray, 0 = no control): 98%

Cc1nn(C)c(Nc2cccc(F)c2F)c1-c1c(F)cc(C#N)cc1F [compound 145]
Test G rating (% disease control) (Septoria tritici; [4]): 100%
Test B rating (% disease control) (Botrytis cinerea; [4]): 96%
Test C rating (% disease control) (Alternaria solani; [4]): 98%
Test I rating (% disease control) [1, 4]: 100%
Test J rating (% disease control) [2, 4]: 100%
Test F rating (% disease control) (Septoria nodorum; [5]): 100%
Test H rating (% disease control) ([3]; curative spray, 0 = no control): 88%

Cc1nn(C)c(Nc2cc([N+](=O)[O-])ccc2F)c1-c1ccc(F)cc1Cl [compound 345]
Test G disease control rating (Septoria tritici): 67%
Test B disease control rating (Botrytis cinerea): 0%
Test C disease control rating (Alternaria solani): 0%
Test I disease control rating [1]: 9%
Test J disease control rating [2]: 0%
Test F disease control rating (Septoria nodorum; Septoria glume blotch on wheat): 0%
Test H disease control rating [3]: 0%

Cc1nn(C)c(Oc2cc(F)cc(C#N)c2)c1-c1ccc(F)cc1Cl [compound 116]
Test G rating (% disease control) (Septoria tritici; [4]): 100%
Test B rating (% disease control) (Botrytis cinerea; [4]): 100%
Test C rating (% disease control) (Alternaria solani; [4]): 94%
Test I rating (% disease control) [1, 4]: 97%
Test J rating (% disease control) [2, 4]: 99%
Test F rating (% disease control) (Septoria nodorum; [5]): 73%
Test H rating (% disease control) ([3]; curative spray, 0 = no control): 16%

Cc1nn(C)c(Nc2c(Cl)cc(F)cc2Br)c1-c1ccc(F)cc1F [compound 348]
Test G disease control rating (Septoria tritici): 100%
Test B disease control rating (Botrytis cinerea): 100%
Test C disease control rating (Alternaria solani): 80%
Test I disease control rating [1]: 100%
Test J disease control rating [2]: 100%
Test F disease control rating (Septoria nodorum; Septoria glume blotch on wheat): 94%
Test H disease control rating [3]: 19%

Cc1nn(C)c(Nc2c(F)cc(F)cc2F)c1-c1ccc(Cl)cc1Cl [compound 75]
Test G rating (% disease control) (Septoria tritici; [4]): 99%
Test B rating (% disease control) (Botrytis cinerea; [4]): 100%
Test C rating (% disease control) (Alternaria solani; [4]): 98%
Test I rating (% disease control) [1, 4]: 99%
Test J rating (% disease control) [2, 4]: 97%
Test F rating (% disease control) (Septoria nodorum; [5]): 98%
Test H rating (% disease control) ([3]; curative spray, 0 = no control): 95%

COc1ccc(-c2c(C)nn(C)c2Nc2c(F)cc(F)cc2F)c(Cl)c1 [compound 104]
Test G rating (% disease control) (Septoria tritici; [4]): 99%
Test B rating (% disease control) (Botrytis cinerea; [4]): 100%
Test C rating (% disease control) (Alternaria solani; [4]): 99%
Test I rating (% disease control) [1, 4]: 99%
Test J rating (% disease control) [2, 4]: 100%
Test F rating (% disease control) (Septoria nodorum; [5]): 97%
Test H rating (% disease control) ([3]; curative spray, 0 = no control): 99%

Cc1nn(C)c(Nc2c(F)cccc2F)c1-c1ccc(Cl)cc1 [compound 33]
Test G rating (% disease control) (Septoria tritici; [4]): 95%
Test B rating (% disease control) (Botrytis cinerea; [4]): 0%
Test C rating (% disease control) (Alternaria solani; [4]): 0%
Test I rating (% disease control) [1, 4]: 18%
Test J rating (% disease control) [2, 4]: 0%
Test F rating (% disease control) (Septoria nodorum; [5]): 0%
Test H rating (% disease control) ([3]; curative spray, 0 = no control): 0%

Cc1cc(F)ccc1-c1c(C)nn(C)c1Oc1c(F)cc(C#N)cc1F [compound 97]
Test G rating (% disease control) (Septoria tritici; [4]): 100%
Test B rating (% disease control) (Botrytis cinerea; [4]): 100%
Test C rating (% disease control) (Alternaria solani; [4]): 99%
Test I rating (% disease control) [1, 4]: 99%
Test J rating (% disease control) [2, 4]: 99%
Test F rating (% disease control) (Septoria nodorum; [5]): 95%
Test H rating (% disease control) ([3]; curative spray, 0 = no control): 0%

COc1ccc(Nc2c(-c3ccc(F)cc3F)c(C)nn2C)cc1OC [compound 72]
Test G rating (% disease control) (Septoria tritici; [4]): 0%
Test B rating (% disease control) (Botrytis cinerea; [4]): 0%
Test C rating (% disease control) (Alternaria solani; [4]): 0%
Test I rating (% disease control) [1, 4]: 0%
Test J rating (% disease control) [2, 4]: 0%
Test F rating (% disease control) (Septoria nodorum; [5]): 0%
Test H rating (% disease control) ([3]; curative spray, 0 = no control): 59%

COc1cc(F)c(-c2c(C)nn(C)c2Nc2ncc(F)cc2F)c(F)c1 [compound 128]
Test G rating (% disease control) (Septoria tritici; [4]): 99%
Test B rating (% disease control) (Botrytis cinerea; [4]): 100%
Test C rating (% disease control) (Alternaria solani; [4]): 100%
Test I rating (% disease control) [1, 4]: 100%
Test J rating (% disease control) [2, 4]: 100%
Test F rating (% disease control) (Septoria nodorum; [5]): 97%
Test H rating (% disease control) ([3]; curative spray, 0 = no control): 66%

Cc1nn(C)c(Oc2ccc(C#N)cc2Cl)c1-c1ccc(Cl)cc1Cl [compound 362]
Test G disease control rating (Septoria tritici): 100%
Test B disease control rating (Botrytis cinerea): 100%
Test C disease control rating (Alternaria solani): 0%
Test I disease control rating [1]: 96%
Test J disease control rating [2]: 96%
Test F disease control rating (Septoria nodorum; Septoria glume blotch on wheat): 0%
Test H disease control rating [3]: 0%

CCn1nc(C)c(-c2ccc(Cl)cc2)c1Nc1c(F)cccc1F [compound 61]
Test G rating (% disease control) (Septoria tritici; [4]): 99%
Test B rating (% disease control) (Botrytis cinerea; [4]): 97%
Test C rating (% disease control) (Alternaria solani; [4]): 0%
Test I rating (% disease control) [1, 4]: 38%
Test J rating (% disease control) [2, 4]: 73%
Test F rating (% disease control) (Septoria nodorum; [5]): 0%
Test H rating (% disease control) ([3]; curative spray, 0 = no control): 0%

Cc1nn(C)c(Oc2ccc(F)cc2C#N)c1-c1ccc(F)cc1Cl [compound 149]
Test G rating (% disease control) (Septoria tritici; [6]): 100%
Test B rating (% disease control) (Botrytis cinerea; [6]): 100%
Test C rating (% disease control) (Alternaria solani; [6]): 98%
Test I rating (% disease control) [1, 7]: 100%
Test J rating (% disease control) [2, 6]: 100%
Test F rating (% disease control) (Septoria nodorum; [8]): 100%
Test H rating (% disease control) [3, 9]: 99%

Cc1cc(Oc2c(-c3c(F)cc(F)cc3F)c(C)nn2C)ccc1[N+](=O)[O-] [compound 135]
Test G rating (% disease control) (Septoria tritici; [4]): 97%
Test B rating (% disease control) (Botrytis cinerea; [4]): 0%
Test C rating (% disease control) (Alternaria solani; [4]): 0%
Test I rating (% disease control) [1, 4]: 74%
Test J rating (% disease control) [2, 4]: 95%
Test F rating (% disease control) (Septoria nodorum; [5]): 0%
Test H rating (% disease control) ([3]; curative spray, 0 = no control): 16%

Cc1nn(C)c(Nc2ccc(F)cc2Cl)c1-c1c(F)cc(C#N)cc1F [compound 112]
Test G rating (% disease control) (Septoria tritici; [4]): 99%
Test B rating (% disease control) (Botrytis cinerea; [4]): 100%
Test C rating (% disease control) (Alternaria solani; [4]): 98%
Test I rating (% disease control) [1, 4]: 100%
Test J rating (% disease control) [2, 4]: 100%
Test F rating (% disease control) (Septoria nodorum; [5]): 99%
Test H rating (% disease control) ([3]; curative spray, 0 = no control): 53%

Cc1nn(C)c(Nc2c(F)cc(F)cc2F)c1-c1c(F)cc(C#N)cc1F [compound 133]
Test G rating (% disease control) (Septoria tritici; [4]): 99%
Test B rating (% disease control) (Botrytis cinerea; [4]): 100%
Test C rating (% disease control) (Alternaria solani; [4]): 100%
Test I rating (% disease control) [1, 4]: 100%
Test J rating (% disease control) [2, 4]: 94%
Test F rating (% disease control) (Septoria nodorum; [5]): 60%
Test H rating (% disease control) ([3]; curative spray, 0 = no control): 0%

Cc1nn(C)c(Nc2ccc(Cl)cc2Cl)c1-c1c(F)cccc1F [compound 179]
Test G rating (% disease control) (Septoria tritici; [6]): 95%
Test B rating (% disease control) (Botrytis cinerea; [6]): 100%
Test C rating (% disease control) (Alternaria solani; [6]): 99%
Test I rating (% disease control) [1, 7]: 93%
Test J rating (% disease control) [2, 6]: 100%
Test F rating (% disease control) (Septoria nodorum; [8]): 73%
Test H rating (% disease control) [3, 9]: 0%

Cc1nn(C)c(Nc2cc(F)c(F)cc2F)c1-c1ccc(F)cc1F [compound 229]
Test G rating (% disease control) (Septoria tritici; [6]): 99%
Test B rating (% disease control) (Botrytis cinerea; [6]): 99%
Test C rating (% disease control) (Alternaria solani; [6]): 17%
Test I rating (% disease control) [1, 7]: 91%
Test J rating (% disease control) [2, 6]: 98%
Test F rating (% disease control) (Septoria nodorum; [8]): 0%
Test H rating (% disease control) [3, 9]: 0%

Cc1nn(C)c(Nc2ccc(F)cc2Cl)c1-c1ccc(C#N)cc1Cl [compound 338]
Test G disease control rating (Septoria tritici): 100%
Test B disease control rating (Botrytis cinerea): 100%
Test C disease control rating (Alternaria solani): 37%
Test I disease control rating [1]: 100%
Test J disease control rating [2]: 99%
Test F disease control rating (Septoria nodorum; Septoria glume blotch on wheat): 40%
Test H disease control rating [3]: 8%

Cc1nn(C)c(Nc2ccc(F)cc2F)c1-c1c(Cl)cccc1Cl [compound 339]
Test G disease control rating (Septoria tritici): 100%
Test B disease control rating (Botrytis cinerea): 100%
Test C disease control rating (Alternaria solani): 0%
Test I disease control rating [1]: 98%
Test J disease control rating [2]: 100%
Test F disease control rating (Septoria nodorum; Septoria glume blotch on wheat): 0%
Test H disease control rating [3]: 0%
